The source of these data is article PMC6803859, “Structural Basis for the Regulation of PPARγ Activity by Imatinib” (Molecules, 2019).

Where a chain is given by its changes, count along the chain named. pKd: −log10 of the molar value.

One assay has as its target T1, PPARγ WT LBD (Homo sapiens, UniProt P37231).
T1 construct: gene PPARG; LBD, residues 195–477 in PPARγ1 numbering
T1 sequence (P37231 223-505): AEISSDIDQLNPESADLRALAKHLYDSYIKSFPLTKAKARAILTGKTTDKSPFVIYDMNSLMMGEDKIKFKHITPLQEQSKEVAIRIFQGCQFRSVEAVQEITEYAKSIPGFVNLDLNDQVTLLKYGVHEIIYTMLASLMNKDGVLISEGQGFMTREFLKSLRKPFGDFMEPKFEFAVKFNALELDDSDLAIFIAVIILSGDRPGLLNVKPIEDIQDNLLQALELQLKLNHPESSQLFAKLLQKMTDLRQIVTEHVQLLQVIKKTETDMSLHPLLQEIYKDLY
The experiment in a line: SPR (Biacore T200, immobilized LBD). Type of assay: binding. (Surface plasmon resonance follows binding to a sensor surface in real time, without labels.)

The target of another assay is T2, PPARγ R288A mutant LBD (Homo sapiens, UniProt P37231, R316A).
T2 construct: gene PPARG; LBD, residues 195–477 in PPARγ1 numbering
T2 sequence (P37231 223-505 R316A): T1 sequence (P37231 223-505) with R94A
Briefly: ([…] Å) and SPR (Biacore T200). Type of assay: binding.

As a reminder, the pKd is the Kd on a negative log10 scale, so that one unit is a factor of ten. A higher pKd goes with a small Kd.

Regarding `Cc1ccc(NC(=O)c2ccc(CN3CCN(C)CC3)cc2)cc1Nc1nccc(-c2cccnc2)n1` [imatinib], the negative-log Kd (pKd) at PPARγ WT LBD is 6.64; at PPARγ R288A mutant LBD it was 6.82.
